Results reported in US20180230143A1, “INHIBITORS OF NHR2 AND/OR RUNX1/ETO-TETRAMERIZATION” (Heinrich-Heine-Universität Düsseldorf, priority 2013, published 2018).
Where two headings read alike, the source gives them in different places.

Legend:
[1] = target: T1, RUNX1-BCR protein (Homo sapiens, UniProt P11274+Q01196); assay: ELISA: tetramer-dependent binding of RUNX1-BCR protein to immobilized RUNX3 oligonucleotide (selectivity control); type: biochemical; settings: for inhibition at 1000 µM / inhibition at 2000 µM: read-out: ELISA Inhibition [%] BCR; for inhibition of binding of the RUNX1-BCR protein, ELISA: [P1]=500 μM and [PPIM]=2000 μM in ELISA
T1 construct: replacing the NHR2 domain of the construct with the homologous BCR tetramerization domain (RUNX1-BCR protein); His6 (C); made in house; host or cells: E. coli BL21(DE3)

[2] = target: T1, RUNX1-BCR protein; assay: ABCD (avidin, biotin, complex, DNA) assay with RUNX1-BCR protein; type: biochemical; settings: for inhibition at 1000 µM: read-out: ABCD Inhibition [%] BCR; for inhibition of binding of the RUNX1-BCR protein, ABCD: c=1100 μM in ABCD assay
Description: (§1) Oligonucleotides were annealed to the corresponding unmodified antisense oligonucleotide to generate the RUNX1 binding site. Purified RUNX1 proteins were pre-incubated with a compound for 1 h at 4° C. Similarly the biotinylated double-stranded oligonucleotides were pre-incubated with streptavidin coated magnetic beads (Dynabeads M-280 Streptavidin, Invitrogen) for 1 h at 4° C. Protein/compound samples and beads with bound oligonucleotide were incubated in binding buffer (25 mM HEPES, pH 7.5, 50 mM KCl, 1 mM EDTA, pH 8.0, 10 mM MgCl2, 5% glycerol, 1 mM DTT) in the presence of 2% IGEPAL CA-630, 1 μg of salmon sperm, and 0.1% BSA for […]. After washing three times, the bound proteins were eluted from beads in SDS-PAGE sample buffer and resolved on SDS-PAGE followed by immunoblotting with a primary anti-myc (9E10, Santa Cruz) antibody and a secondary HRP-coupled antibody (goat anti-mouse IgG-HRP, Santa Cruz).

[3] = target: T2, RUNX1-NHR2 protein (Homo sapiens, UniProt Q01196+Q06455); assay: ABCD (avidin, biotin, complex, DNA) assay with RUNX1-NHR2 protein; type: biochemical; settings: for inhibition at 1000 µM: read-out: ABCD Inhibition [%] NHR2; for inhibition of tetramer-dependent binding of the RUNX1-NHR2 protein to immobilized RUNX3 oligonucleotide, ABCD: c=1100 μM in ABCD assay
T2 construct: the wild type NHR2 tetramerization domain or the homologous BCR tetramerization domain (highlighted) are optionally enclosed by an N-terminal RUNX1 domain; His6 (C); made in house; host or cells: E. coli BL21(DE3)
Description: as §1

[4] = target: T2, RUNX1-NHR2 protein; assay: ELISA: tetramer-dependent binding of RUNX1-NHR2 protein to immobilized RUNX3 oligonucleotide; type: biochemical; settings: for inhibition at 1000 µM / inhibition at 2000 µM: read-out: ELISA Inhibition [%] NHR2; for inhibition of tetramer-dependent binding of the RUNX1-NHR2 protein to immobilized RUNX3 oligonucleotide, ELISA: [P1]=500 μM and [PPIM]=2000 μM in ELISA; for IC50: inhibition of tetramerization of the RUNX1-NHR2 protein
Description: Preferably, for enzyme-linked immunosorbent assays (ELISA), wells of a 96 well plate were coated with 100 ng streptavidin (Dianova) in PBS over night at 4° C. […] Binding of RUNX1-containing proteins to the R3 oligonucleotide was detected with a primary anti-myc antibody (9E10, Santa Cruz) and a secondary HRP-coupled antibody (donkey anti-mouse IgG-HRP, Santa Cruz). ELISA was developed using the Sure Blue TMB Microwell Peroxidase substrate (KLP), and the reaction was stopped with sulfuric acid (1 N). Absorption at 450 nm and 650 nm was measured with the Spectra Max 340, Molecular Devices. Preferably, the ELISA assay is as further described in the experimental section.
The inhibition of NHR2 tetramerization was measured in vitro by tetramer-dependent binding of a RUNX1-NHR2 protein construct to an immobilized oligonucleotide derived from the RUNX3 promoter sequence in ELISA and ABCD assays. […] Furthermore, the influence of the inhibitors on the viability of RUNX1/ETO-dependent SKNO-1 cells was determined; as a control RUNX1/ETO-independent U937 cells were used.
The principle of the biochemical assays for measuring inhibition of NHR2 tetramerization is illustrated in FIG. 1. NHR2 tetramerization and its inhibition was measured in a purpose-built sandwich ELISA (enzyme-linked immunosorbent assay: FIG. 1A). • i) The RUNX1-NHR2 tetramer specifically binds to the biotinylated RUNX3-oligonucleotide (RUNX3-oligo^bio) that is immobilized on a streptavidine coated surface (SA). Disrupting the RUNX1-NHR2 tetramer into dimers leads to a release of the RUNX1-NHR2 protein from the surface. Antibody-conjugated horseradish peroxidase (HRP) binds to a primary anti-myc antibody (α-myc AB) that binds to the immobilized myc-labeled RUNX1-NHR2 tetramer. HRP catalyzes the conversion of 3,3′,5,5′-tetramethylbenzidine (TMB) to 3,3′,5,5-tetramethylbenzidine diimine.
Wells of a 96 well plate were coated with 100 ng streptavidin (Dianova) in PBS over night at 4° C. […] RUNX1-containing proteins were incubated with synthetic peptides or chemical compounds in binding buffer (25 mM HEPES, pH 7.5, 50 mM KCl, 1 mM EDTA, pH 8.0, 10 mM MgCl2, 5% glycerol, 1 mM DTT) in the presence of 1 μg salmon sperm and 1% IGEPAL CA-630 for 5 h and subsequently added to the streptavidin-bound R3 oligonucleotide for 15 min on the 96 well plate. Binding of RUNX1-containing proteins to the R3 oligonucleotide was detected with a primary anti-myc antibody (9E10, Santa Cruz) and a secondary HRP-coupled antibody (donkey anti-mouse IgG-HRP, Santa Cruz). ELISA was developed using the Sure Blue TMB Microwell Peroxidase substrate (KLP), and the reaction was stopped with sulfuric acid (1 N). Absorption at 450 nm and 650 nm was measured with the Spectra Max 340, Molecular Devices.

[5] = tested on: SKNO-1 cells; assay: Xenotransplantation of pre-treated SKNO-1 cells in SCID mice; type: in vivo, mouse; settings: cells treated in vitro with 25 μM for four days, injected subcutaneously, versus untreated cells
Description: The effect of the inhibition of NHR2 tetramerization was measured in a mouse model (xenotransplantation of SKNO-1 and K562 cells in SCID mice).
(§3) For the experiment, the SCID- or SCUD-gamma chain mouse model was used. The experiment investigates if the transplantation of the AML cell line SKNO-1 after treatment with either 7.44 or 7.38 leads to reduced tumor growth. […] For this, the cells were treated in vitro with 25 μM of the respective compound for four days. Furthermore, untreated SKNO-1 and CML cell lines were used. […] At day 5 the number of living cells was determined, and 5×10^5 SKNO-1 cells or 5×10^5 K562 cells were injected per transplant. Per mouse, untreated and treated cells were injected into the left and right flank, respectively.
For determining the tumor volume, the length and the width of the tumor was measured twice weekly, starting one week after the transplantation (FIGS. 5A and 5B). […] At the end of the experiment, the tumors were freed and weighed (FIGS. 5C and 5D).

[6] = tested on: SKNO-1 cells; assay: FACS analysis of CD11b expression, SKNO-1 cells; type: cell-based; settings: 25 μM for four days, at the day of injection
Description: as §3
At the day of injection, the expression of the surface marker CD11b, a measure for cell differentiation, was determined (FIG. 5E) as was the rate of apoptosis (FIG. 5F).

[7] = tested on: SKNO-1 cells; assay: Cell survival assay (XTT), RUNX1/ETO-dependent SKNO-1 cells; type: cell-based; settings: daily treated with 1 μM or 10 μM; XTT at days 3, 5, and 7
Description: Cell proliferation and viability were measured with the cell proliferation kit II (XTT, Roche Applied Science). The XTT assay was performed at days 3, 5, and 7. […] SKNO-1 cells were cultured in RPMI 1640+10% FCS and 7 ng ml^−1 human GM-CSF. […] Cell proliferation and viability were measured with the cell proliferation kit II (XTT, Roche Applied Science). 3000 cells per well were cultured in a 96 well plate and daily treated with compounds at different concentrations. The XTT assay was performed at days 3, 5, and 7.

[8] = target: T3, NHR2 protein (Homo sapiens, UniProt Q06455); assay: BS3 cross-linking assay of NHR2 oligomers; type: biochemical; settings: for inhibition of NHR2 tetramerization (reduction of BS3 cross-linked NHR2 oligomers): c=1100 μM
T3 construct: the wild type NHR2 tetramerization domain or the homologous BCR tetramerization domain (highlighted) are optionally enclosed by an N-terminal RUNX1 domain; His6 (C); made in house; host or cells: E. coli BL21(DE3)
T3 sequence (Q06455 334-400): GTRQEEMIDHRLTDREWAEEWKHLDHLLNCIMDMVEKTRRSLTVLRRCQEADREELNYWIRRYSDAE
Description: (§2) Preferably, for the cross-linking assay, purified NHR2 protein or NHR2-containing protein (5 μM) was incubated with the peptides at 4° C. for 1 h. The BS^3 (Bis[sulfosuccinimidyl] suberate) crosslink-reaction was performed at a final concentration of 1 mM for 30 min at RT. Tris-HCl (0.05 M, pH 7.4) was added to the reaction mix and incubated for 10 min to stop the reaction. Protein-oligomer nation was analyzed by western blotting. For protein detection, the membrane was incubated with a primary anti-myc antibody (9E10, Santa Cruz) and a secondary HRP-coupled antibody (goat anti-mouse IgG-HRP, Santa Cruz). Preferably, the cross-linking assay is as further described in the experimental section.
as §2, with “Purified” for “Preferably, for the cross-linking assay, purified”, “NHR2” for “NHR2 protein or NHR2-containing”, “Protein-oligomerization” for “Protein-oligomer nation”, “Cruz).” for “Cruz). Preferably, the cross-linking assay is as further described in the experimental section.”

[9] = relative inhibition at 1 mM inhibitor concentration, RUNX1-BCR
[10] = relative inhibition at 1 mM inhibitor concentration, RUNX1-NHR2 protein
[11] = measured at 2 mM concentration, RUNX1-BCR
[12] = measured at 2 mM concentration, RUNX1-NHR2 protein

T1 sequence (Q01196+P11274 fused): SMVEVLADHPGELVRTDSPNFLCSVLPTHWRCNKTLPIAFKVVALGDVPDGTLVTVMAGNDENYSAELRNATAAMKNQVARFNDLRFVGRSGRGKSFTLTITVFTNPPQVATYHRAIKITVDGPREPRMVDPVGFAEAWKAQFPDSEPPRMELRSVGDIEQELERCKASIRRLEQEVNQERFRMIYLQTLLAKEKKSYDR
T2 sequence (Q01196+Q06455 fused): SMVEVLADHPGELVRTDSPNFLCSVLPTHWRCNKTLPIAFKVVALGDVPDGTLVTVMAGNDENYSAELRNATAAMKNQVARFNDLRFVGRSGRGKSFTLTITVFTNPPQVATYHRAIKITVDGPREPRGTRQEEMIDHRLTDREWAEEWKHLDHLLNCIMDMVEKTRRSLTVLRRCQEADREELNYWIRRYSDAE

## O=C(O)c1ccccc1OCc1cn2ccccc2n1 [Compound 2b, 2-(imidazo[1,2-a]pyridin-2-ylmethoxy)benzoic acid]
[1]; measured at 50 μM concentration, RUNX1-BCR
  inhibition at 50 µM: 41.5%
[2]; [9]
  inhibition at 1000 µM: 11.8%
[3]; [10]
  inhibition at 1000 µM: 49.4%
[4]; measured at 50 μM concentration, RUNX1-NHR2 protein
  inhibition at 50 µM: 83.1%

## O=C(CSc1nc2ccccc2[nH]1)Nc1ccc(Cl)c(C(=O)O)c1 [Compound 5.4, 5-(2-(1H-benzo[d]imidazol-2-ylthio)acetamido)-2-chlorobenzoic acid]
[1]; [9]
  inhibition at 1000 µM: 35.4%
[2]; [9]
  inhibition at 1000 µM: -3.3%
[3]; [10]
  inhibition at 1000 µM: 63.9%
[4]; [10]
  inhibition at 1000 µM: 89.7%

## COc1ccc(-c2ccc(CCC(=O)O)n2CCC(=O)O)cc1 [Compound 5.8, 3,3′-(5-(4-methoxyphenyl)-1H-pyrrole-1,2-diyl)dipropanoic acid]
[1]
  inhibition at 1000 µM: 12%
[2]
  inhibition at 1000 µM: 56.1%
[3]
  inhibition at 1000 µM: 68.2%
[4]
  inhibition at 1000 µM: 70.3%

## Cc1oc(C(=O)O)cc1CSCc1cc(C(=O)O)oc1C [Compound 5.9, 5,5′-dimethyl-4,4′-(sulfanediylbis(methyl))-di(furan-2-carboxylic acid)]
[1]; [9]
  inhibition at 1000 µM: 20.7%
[2]; [9]
  inhibition at 1000 µM: 14.6%
[3]; [10]
  inhibition at 1000 µM: 52.5%
[4]; [10]
  inhibition at 1000 µM: 51.7%

## Cc1c(CC(=O)NCCC(=O)O)c(=O)oc2c(C)c3occ(C(C)(C)C)c3cc12 [Compound 5.17, 3-(2-(3-tert-butyl-5,9-dimethyl-7-oxo-7H-furo[3,2-g]chromen-6-yl)acetamido)propanoic acid]
[1]; [9]
  inhibition at 1000 µM: 15.9%
[2]; [9]
  inhibition at 1000 µM: 95.3%
[3]; [10]
  inhibition at 1000 µM: 89.5%
[4]; [10]
  inhibition at 1000 µM: 41.7%

## COc1ccc(OC)c2[nH]c(C(=O)NCC3(CC(=O)O)CCCCC3)cc12 [Compound 5.18, 2-(1-((4,7-dimethoxy-1H-indole-2-carboxamido)methyl)cyclohexyl)acetic acid]
[1]; [9]
  inhibition at 1000 µM: 3.9%
[2]; [9]
  inhibition at 1000 µM: 52.6%
[3]; [10]
  inhibition at 1000 µM: 83%
[4]; [10]
  inhibition at 1000 µM: 80.5%

## Cc1ccc(OCC(=O)O)c(OCC(=O)O)c1 [Compound 7.3, 2-[2-(carboxymethyloxy)-4-methyl-phenoxy]acetic acid]
[1]; [11]
  inhibition at 2000 µM: 31.5%
[2]; [9]
  inhibition at 1000 µM: 28.5%
[3]; [10]
  inhibition at 1000 µM: 57.7%
[4]; [12]
  inhibition at 2000 µM: 94.4%

## O=C(O)COc1cccc(OCC(=O)O)c1 [Compound 7.4, 2,2′-(1,3-phenylenebis(oxy))diacetic acid]
[1]; [11]
  inhibition at 2000 µM: 10%
[2]; [9]
  inhibition at 1000 µM: 6.1%
[3]; [10]
  inhibition at 1000 µM: 47.4%
[4]; [12]
  inhibition at 2000 µM: 71.6%

## COc1cc(CC(C(=O)O)C(C)C(=O)c2ccc3c(c2)OCO3)cc(OC)c1OC (stereo not drawn) [Compound 7.18, 4-(benzo[d][1,3]dioxol-5-yl)-3-methyl-4-oxo-2-(3,4,5-trimethoxybenzyl)butanoic acid]
[1]
  inhibition of binding of the RUNX1-BCR protein, ELISA: is not inhibited
  inhibition at 2000 µM: -6.7%
[2]
  inhibition of binding of the RUNX1-BCR protein, ABCD: is not inhibited
  inhibition at 1000 µM: -2.2%
[3]
  inhibition of tetramer-dependent binding of the RUNX1-NHR2 protein to immobilized RUNX3 oligonucleotide, ABCD: selectively inhibit
  inhibition at 1000 µM: 80.2%
[4]
  inhibition of tetramer-dependent binding of the RUNX1-NHR2 protein to immobilized RUNX3 oligonucleotide, ELISA: selectively inhibit
  inhibition at 2000 µM: 47.7%

## Cc1c(C(=O)O)[nH]c(/C=C/C(=O)O)nc1=O [Compound 7.38, (E)-2-(2-carboxyvinyl)-5-methyl-6-oxo-3,6-dihydropyrimidine-4-carboxylic acid, reference compound]
[5]
  tumor growth (tumor volume) of transplanted SKNO-1 cells: small reduction
[6]
  increase of the CD11b expression in SKNO-1 cells: 2%
[7]
  proliferation of SKNO-1 cells (XTT assay): did not affect
[2]; [9]
  inhibition at 1000 µM: 26.1%
[3]; [10]
  inhibition at 1000 µM: 20.1%
[4]
  inhibition of tetramer-dependent binding of the RUNX1-NHR2 protein to immobilized RUNX3 oligonucleotide, ELISA: not
  IC50: > 2000 µM
[4]; [12]
  inhibition at 2000 µM: 4%

## Ac-VARRCAEAAREALNYAIR-NH2 [P3, reference compound]
[8]
  inhibition of NHR2 tetramerization (reduction of BS3 cross-linked NHR2 oligomers): neither P2, P3 nor the unrelated peptide CP inhibit NHR2 tetramerization
[4]
  IC50: > 2000 µM

## Ac-VLRRCQEADREELNYWIR-NH2 [P1, reference compound]
[8]
  dose dependence of inhibition of NHR2 tetramerization (cross-linking): dose-dependent
  inhibition of NHR2 tetramerization (reduction of BS3 cross-linked NHR2 oligomers): inhibit NHR2 tetramerization
[8]; read-out: IC50 of inhibition of NHR2 tetramerization (cross-linking)
  IC50: 250 µM
[1]
  inhibition of binding of the RUNX1-BCR protein, ELISA: is not inhibited
[1]; [9]
  inhibition at 1000 µM: 9.2%
[2]
  inhibition of binding of the RUNX1-BCR protein, ABCD: is not inhibited
[3]
  inhibition of tetramer-dependent binding of the RUNX1-NHR2 protein to immobilized RUNX3 oligonucleotide, ABCD: selectively inhibit
[4]
  inhibition of tetramer-dependent binding of the RUNX1-NHR2 protein to immobilized RUNX3 oligonucleotide, ELISA: selectively inhibit
  IC50: 460 µM
[4]; [10]
  inhibition at 1000 µM: 42.8%
